Reference: patent publication US5030458A, “Method for preventing diet-induced carnitine deficiency in domesticated dogs and cats” (priority 1989, dated 1991)
Where “and” joins values, the source holds several entries; their conditions need not be identical. Equal values may be shown once. Entries after “also recorded” stand apart in the source; their conditions may differ. Read-outs that look alike come from different tables or passages of the source.

Experiments:
[1] = Renal reabsorption of L-Carnitine in dogs; type: in vivo, dog
[2] = rats; cited from earlier work
[3] = cited from earlier work
[4] = Plasma carnitine concentrations in Greyhound dogs on commercial dog food supplemented with L-Carnitine (ground beef); type: in vivo; conditions: for concentration at 168 h / concentration at 336 h: dog, plasma, po, 350 mg/animal/day
Experimental: Six apparently healthy Greyhound dogs were determined to be normal by physical examination, fecal flotation, complete blood count, serum biochemical profile, ECG, and echocardiography. They were fed a standard commercial dog food diet free choice for a one-month control period. Control plasma samples (as well as subsequent test samples) were obtained following an eight-hour fast on two consecutive days for analysis of total, free, and esterified L-Carnitine concentration. The average of the plasma L-Carnitine concentration on two consecutive days was taken for each dog and each measuring period. Following the control period, all of the dogs were continued for two weeks on the standard commercial dog food diet supplemented with L-Carnitine. The L-Carnitine supplement was in the form of 0.5 kg per dog per day of raw frozen lean ground beef. This was equivalent to a daily supplement of 350 mg. of L-Carnitine per dog. Plasma samples were drawn on days 7 and 8 (averaged for the one-week measurement) and days 13 and 14 (averaged for the two-week measurement) for L-Carnitine analysis. Differences between the means of each test period and control were determined by the Student's t test.

[5] = human; approaching; cited from earlier work
[6] = test system: cardiomyopathy; conditions: restoration toward normal of deficient L-Carnitine levels; hamsters; cited from earlier work
[7] = cited from earlier work; remark: listed apart in the source
[8] = test system: cardiomyopathy; conditions: restoration toward normal of deficient L-Carnitine levels; dogs; cited from earlier work
[9] = mammalian species; cited from earlier work
[10] = test system: fatty acid oxidation in muscle homogenates; conditions: certain L-Carnitine deficient patients; cited from earlier work
[11] = Changes in serum L-Carnitine following oral administration of gamma-butyrobetaine; type: in vivo; conditions: administering GBB to a dog
Text: Changes in serum L-Carnitine following oral
administration of 5 grams of gamma-butyro-betaine. Amounts

[12] = test system: carnitine deficiency syndromes; conditions: humans; U.S. Pat. No. 4,382,092; cited from earlier work

SMILES: C[N+](C)(C)C[C@H](O)CC(=O)[O-] [L-Carnitine]
- Renal reabsorption, average [1]: approximately 75%
- Plasma carnitine concentration, average [2]: 56.5 ± 2.2 µM
- Plasma total carnitine, mean ([3]; human females): 51.5 ± 11.6 µM
- Plasma total carnitine, mean ([3]; human males): 59.3 ± 11.9 µM
- concentration ([4]; Week 1, individual dogs 1-6, ground beef 0.5 kg/day/dog (350 mg L-Carnitine/day), 10080 min, read-out: Plasma carnitine concentration, Free): 60.5 µM and 52.5 µM and 55.6 µM and 56 µM and 51.7 µM
- concentration ([4]; Week 1, individual dogs 1-6, ground beef 0.5 kg/day/dog (350 mg L-Carnitine/day), 10080 min, read-out: Plasma carnitine concentration, Total): 70.7 µM and 57.2 µM and 63.1 µM and 58.1 µM and 56.3 µM
- concentration ([4]; Week 2, individual dogs 1-6, ground beef 0.5 kg/day/dog (350 mg L-Carnitine/day), 20160 min, read-out: Plasma carnitine concentration, Free): 62.2 µM and 52.7 µM and 52 µM and 58.5 µM and 41 µM
- concentration ([4]; Week 2, individual dogs 1-6, ground beef 0.5 kg/day/dog (350 mg L-Carnitine/day), 20160 min, read-out: Plasma carnitine concentration, Total): 65.7 µM and 58.1 µM and 56.3 µM and 66.3 µM and 43.2 µM
- Plasma total L-Carnitine concentration (in words) ([4]; diet supplemented with L-Carnitine): significantly increased; also recorded: stabilizes in a range that is considered normal; also recorded: dramatically increase the plasma concentration of L-Carnitine in dogs
- concentration at 168 h ([4]; Week 1, average of 6 dogs, S.D. ±3.5, ** p ≤ 0.01 vs control, read-out: Plasma carnitine concentration, Free, AVG): 55.9 µM
- concentration at 168 h ([4]; Week 1, average of 6 dogs, S.D. ±6.5, * p ≤ 0.05 vs control, read-out: Plasma carnitine concentration, Total, AVG): 62.5 µM
- concentration at 168 h ([4]; Week 1, individual dogs 1-6, ground beef 0.5 kg/day/dog (350 mg L-Carnitine/day), read-out: Plasma carnitine concentration, Free): 58.9 µM
- concentration at 168 h ([4]; Week 1, individual dogs 1-6, ground beef 0.5 kg/day/dog (350 mg L-Carnitine/day), read-out: Plasma carnitine concentration, Total): 70.1 µM
- concentration at 336 h ([4]; Week 2, average of 6 dogs, S.D. ±8.0, * p ≤ 0.05 vs control, read-out: Plasma carnitine concentration, Free, AVG): 51.9 µM
- concentration at 336 h ([4]; Week 2, average of 6 dogs, S.D. ±8.6, read-out: Plasma carnitine concentration, Total, AVG): 57 µM
- concentration at 336 h ([4]; Week 2, individual dogs 1-6, ground beef 0.5 kg/day/dog (350 mg L-Carnitine/day), read-out: Plasma carnitine concentration, Free): 44.9 µM
- concentration at 336 h ([4]; Week 2, individual dogs 1-6, ground beef 0.5 kg/day/dog (350 mg L-Carnitine/day), read-out: Plasma carnitine concentration, Total): 52.4 µM
- Renal reabsorption [5]: ~100%
- Myocardial function [6]: improved myocardial function
- Solubility in water [7]: extremely soluble in water
- Myocardial function [8]: improved myocardial function
- L-Carnitine concentration in cardiac and skeletal muscle relative to serum [9]: much higher than in serum
- Fatty acid oxidation in muscle homogenates [10]: restoration to normal of fatty acid oxidation

SMILES: C[N+](C)(C)CCCC(=O)[O-] [gamma-butyro-betaine, gamma-butyrobetaine]
- Effect on serum L-Carnitine (in words) [11]: produces a concomitant use in serum L-Carnitine
- Alleviation of carnitine deficiency syndromes [12]: used successfully to alleviate carnitine deficiency syndromes in humans
